Data: patent US8252832B2, “Kinesin inhibitors as cancer therapeutics” (Novartis AG, priority 2007, dated 2012)
Read-outs that look alike come from different tables or passages of the source.

Tested on: panel of cell lines derived from hematological malignancies
Assay: Cell survival assay, CellTiter-Glo readout after 48 hours, hematological panel
Assay type: cell-based
Set-up: key to Differential: panel average log(GI50) minus cell line log(GI50); positive = more sensitive
Experimental: Compound IIa was tested against a panel of cell lines derived from hematological malignancies in a cell survival assay using CellTiter-Glo® as a readout after 48 hours in the presence of compound. Table 18 lists the type of hematological malignancy, the name of the sample, its GI50 (concentration needed to achieve 50% growth inhibition) value in the assay, the logarithm of the GI50 (log(GI50), and the relative sensitivity of each sample (Differential). The differential is calculated by subtracting the log(GI50) for each cell line from the average log(GI50) across the entire panel (0.236 in this case); a positive value indicates a sample that is more sensitive than average, whereas a negative value indicates a sample that is less sensitive than average.

CC(C)(C)[C@H](c1nc(-c2cc(F)ccc2F)cn1Cc1ccccc1)N(CC[C@H](N)CF)C(=O)CO [Compound IIa]
GI50 (Homo sapiens, MM1.S, 48 h, MM1-S (MM), read-out: GI50): 0.24 nM | GI50 (Homo sapiens, MM1.S, 48 h, MM1-S (MM), read-out: Log(GI50) (converted)): 0.24 nM | GI50 (Homo sapiens, MOLT-3, 48 h, MOLT-3 (ALL), read-out: GI50): 0.34 nM | GI50 (Homo sapiens, MOLT-3, 48 h, MOLT-3 (ALL), read-out: Log(GI50) (converted)): 0.335 nM | GI50 (Homo sapiens, MOLT-4, 48 h, MOLT-4 (ALL), read-out: GI50): 0.33 nM | GI50 (Homo sapiens, MOLT-4, 48 h, MOLT-4 (ALL), read-out: Log(GI50) (converted)): 0.331 nM | GI50 (Homo sapiens, MV4-11, 48 h, MV4, 11 (AML), read-out: GI50): 0.08 nM | GI50 (Homo sapiens, MV4-11, 48 h, MV4, 11 (AML), read-out: Log(GI50) (converted)): 0.0769 nM | GI50 (Homo sapiens, NALM-6, 48 h, NALM-6 (ALL), read-out: GI50): 0.14 nM | GI50 (Homo sapiens, NALM-6, 48 h, NALM-6 (ALL), read-out: Log(GI50) (converted)): 0.135 nM | GI50 (Homo sapiens, NCI-H929, 48 h, H929 (MM), read-out: GI50): 0.34 nM | GI50 (Homo sapiens, NCI-H929, 48 h, H929 (MM), read-out: Log(GI50) (converted)): 0.335 nM | GI50 (Homo sapiens, OPM-2, 48 h, OPM2 (MM), read-out: GI50): 0.14 nM | GI50 (Homo sapiens, OPM-2, 48 h, OPM2 (MM), read-out: Log(GI50) (converted)): 0.135 nM | GI50 (Homo sapiens, RPMI-8226, 48 h, RPMI8226 (MM), read-out: GI50): 0.26 nM | GI50 (Homo sapiens, RPMI-8226, 48 h, RPMI8226 (MM), read-out: Log(GI50) (converted)): 0.262 nM | GI50 (Homo sapiens, RS4-11, 48 h, RS4, 11 (ALL), read-out: GI50): 0.1 nM | GI50 (Homo sapiens, RS4-11, 48 h, RS4, 11 (ALL), read-out: Log(GI50) (converted)): 0.1 nM | GI50 (Homo sapiens, Ramos, 48 h, Ramos (NHL), read-out: GI50): 0.16 nM | GI50 (Homo sapiens, Ramos, 48 h, Ramos (NHL), read-out: Log(GI50) (converted)): 0.16 nM | GI50 (Homo sapiens, SET-2, 48 h, SET-2 (AML), read-out: GI50): 0.34 nM | GI50 (Homo sapiens, SET-2, 48 h, SET-2 (AML), read-out: Log(GI50) (converted)): 0.34 nM | GI50 (Homo sapiens, SU-DHL-1, 48 h, SuDHL-1 (NHL), read-out: GI50): 10 nM | GI50 (Homo sapiens, SU-DHL-1, 48 h, SuDHL-1 (NHL), read-out: Log(GI50) (converted)): 10 nM | GI50 (Homo sapiens, SU-DHL-4, 48 h, SuDHL-4 (NHL), read-out: GI50): 0.45 nM | GI50 (Homo sapiens, SU-DHL-4, 48 h, SuDHL-4 (NHL), read-out: Log(GI50) (converted)): 0.447 nM | GI50 (Homo sapiens, SU-DHL-6, 48 h, SuDHL-6 (NHL), read-out: GI50): 0.16 nM | GI50 (Homo sapiens, SU-DHL-6, 48 h, SuDHL-6 (NHL), read-out: Log(GI50) (converted)): 0.16 nM | GI50 (Homo sapiens, SUP-B15, 48 h, SUP-B15 (ALL), read-out: GI50): 0.19 nM | GI50 (Homo sapiens, SUP-B15, 48 h, SUP-B15 (ALL), read-out: Log(GI50) (converted)): 0.19 nM | GI50 (Homo sapiens, SUP-T1, 48 h, SUP-T1 (NHL), read-out: GI50): 5.57 nM | GI50 (Homo sapiens, SUP-T1, 48 h, SUP-T1 (NHL), read-out: Log(GI50) (converted)): 5.57 nM | GI50 (Homo sapiens, U-937, 48 h, U937 (NHL), read-out: GI50): 0.2 nM | GI50 (Homo sapiens, U-937, 48 h, U937 (NHL), read-out: Log(GI50) (converted)): 0.2 nM | Differential (HuT78 (NHL)): 0.195 | Differential (INA-6 (MM)): 0.555 | GI50 (INA-6, 48 h, INA-6 (MM), read-out: GI50): 0.12 nM | GI50 (INA-6, 48 h, INA-6 (MM), read-out: Log(GI50) (converted)): 0.12 nM | Differential (K562 (CML)): 0.314 | Differential (KM-H2 (HL)): 0.266 | Differential (KMS11 (MM)): −0.050 | Differential (KMS11-Luc (MM)): 0.172 | Differential (KMS12 (MM)): 0.172 | Differential (KMS18-Luc (MM)): −0.080 | Differential (KMS26 (MM)): 0.254 | GI50 (KMS-26, 48 h, KMS26 (MM), read-out: GI50): 0.24 nM | GI50 (KMS-26, 48 h, KMS26 (MM), read-out: Log(GI50) (converted)): 0.24 nM | Differential (Karpas-299 (NHL)): 0.333 | Differential (Karpas-299-Luc (NHL)): −1.671 | Differential (Karpas-422 (NHL)): −1.077 | Differential (Kasumi-1 (AML)): −0.010 | Differential (L363 (MM)): 0.520 | Differential (L428 (HL)): −1.667 | Differential (L-1236 (HL)): −0.930 | GI50 (L-1236, 48 h, L-1236 (HL), read-out: GI50): 3.67 nM | GI50 (L-1236, 48 h, L-1236 (HL), read-out: Log(GI50) (converted)): 3.66 nM | Differential (LP1 (MM)): 0.322 | Differential (MHH-CALL-2 (ALL)): 0.136 | Differential (MHH-CALL-3 (ALL)): 0.333 | Differential (MHH-CALL-4 (ALL)): −1.366 | GI50 (MHHCALL4, 48 h, MHH-CALL-4 (ALL), read-out: GI50): 10 nM | GI50 (MHHCALL4, 48 h, MHH-CALL-4 (ALL), read-out: Log(GI50) (converted)): 10 nM | Differential (MM1-S (MM)): 0.254 | Differential (MM1-S-Luc (MM)): 0.272 | Differential (MOLM13-Luc (AML)): 0.279 | Differential (MOLT-3 (ALL)): 0.109 | Differential (MOLT-4 (ALL)): 0.114 | Differential (MUTZ-5 (ALL)): −1.366 | Differential (MV4, 11 (AML)): 0.747 | Differential (MV4, 11Luc (AML)): 0.613 | Differential (NALM-6 (ALL)): 0.504 | Differential (NALM-19 (ALL)): 0.355 | Differential (OPM2 (MM)): 0.504 | Differential (REH (ALL)): 0.379 | Differential (RL (NHL)): −1.667 | Differential (RPMI8226 (MM)): 0.216 | Differential (RS4, 11 (ALL)): 0.634 | Differential (Ramos (NHL)): 0.430 | Differential (SEM-Luc (ALL)): 0.458 | Differential (SET-2 (AML)): 0.102 | Differential (SR (NHL)): 0.591 | Differential (SUP-B15 (ALL)): 0.355 | Differential (SUP-M2 (NHL)): 0.379 | GI50 (SUP-M2, 48 h, SUP-M2 (NHL), read-out: GI50): 0.18 nM | GI50 (SUP-M2, 48 h, SUP-M2 (NHL), read-out: Log(GI50) (converted)): 0.18 nM | Differential (SUP-T1 (NHL)): −1.112 | Differential (SuDHL-1 (NHL)): −1.366 | Differential (SuDHL-4 (NHL)): −0.016 | Differential (SuDHL-6 (NHL)): 0.430 | Differential (TANOUE (ALL)): −1.366 | Differential (U937 (NHL)): 0.333 | GI50 (UKE1, 48 h, UKE-1 (AML), read-out: GI50): 0.18 nM | GI50 (UKE1, 48 h, UKE-1 (AML), read-out: Log(GI50) (converted)): 0.175 nM | Differential (UKE-1 (AML)): 0.391 | Differential (YT (ALL)): −1.366
